Entries after “also recorded” stand apart in the source; their conditions may differ.
Legend:
HLE-B3 cells = experiment: EMT marker / Wnt-β-catenin immunoblot in human lens epithelial cell line HLE-B3; type: cell-based; details: for αSMA production after BSO stimulation: HLE-B3 cells co-treated with 10 mM NAC or 0.5 mM GSH-EE and 500 μM BSO, 24 hr; for TGFβ2-mediated αSMA production: HLE-B3 cells, 10 mM NAC or 0.5 mM GSH-EE co-incubated with 1 ng/ml TGFβ2, 24 hr; for BSO-increased Ser9 phosphorylation of GSK-3β / BSO-increased β-catenin expression: cells co-treated with 0.5 mM GSH-EE or 10 mM NAC, BSO 24 hr
Method: Cell Culture—Human lens epithelial cells (HLE-B3) were grown in DMEM medium with 10% fetal bovine serum (FBS), 2 mM glutamine and 50 unit/ml penicillin streptomycin (ThermoFisher, Waltham, Mass.) at 37° C. in a humidified 5% CO2 incubator. For primary porcine lens epithelial cell culture, pig eyes were collected at a local slaughterhouse within two hours of postmortem time, placed on ice and transported to the lab (about 1 hr) for immediate processing. First, the isolated lens was incubated with 2 ml of 0.25% trypsin at 37° C. for 2 min to remove any attached non-lens cells. Then, after a brief rinse with HBSS, the lens capsule was isolated and rinsed three times with HBSS before incubation with 2 ml of 0.5% trypsin for 5 min. 5 ml of complete DMEM medium was added and tissue was disrupted by pipetting up and down 10-15 times with a pipette fitted with a 1000 μl tip. The tissue homogenate was then passed through a 100 μm cell strainer. The cells were collected by low speed centrifugation at 150×g and placed in a 35 mm laminin-coated tissue culture dish with DMEM medium supplied with 10% FBS, 2 mM glutamine and 50 unit/ml penicillin streptomycin (ThernoFisher). The cells were cultured at 37° C. in a humidified incubator with 5% CO2.
Cells were placed 24 hr before the treatment and fresh medium was replaced immediately before the treatment. The indicated concentrations of BSO, DMF, NAC, GSH-EE or TGFβ2 were added to fresh medium and incubated at various time intervals as indicated. After treatment time, the cells were harvested after three washes with ice-cold PBS and subjected to immunoblot or other assays as described below. For whole lens culture, the serum-free medium with or without BSO, NAC, GSH-EE or TGFβ2 was incubated immediately after isolation for 48 hr and the whole lens or lens capsule was collected for further analysis. For lens explant culture, 48 hr after explant culture, various stimulates were used in fresh serum-free medium for an additional 48 hr, and the explant was fixed with 10% formaldehyde for 10 min before immunofluorescence stain, as described below.
The cells, whole lens, lens capsule, and lens fibers were collected and lysed in lysis buffer containing 20 mM Tris pH 7.5, 1 mM EDTA, 1 mM EGTA, 150 mM NaCl, 1% Triton X-100, 2.5 mM sodium pyrophosphate, 1 mM bα-Glycerolphosphate, 1 mM Na3VO4, 1 mg/ml Leupeptin, 1 mM PMSF on ice for 10 min. The protein concentration from the supernatant was determined by protein BCA assay (ThermoFisher). The protein extract was further processed for immunoblot analysis and probed for αSMA, collagen I, vimentin, phosphorylated Smad2, phosphorylated Smad3, phosphorylated GSK-3β and (β-catenin. All data were normalized to the level of GAPDH.

mice = experiment: Mouse mock cataract surgery in vivo, immunofluorescence of EMT markers
Method: Age-matched four month old mice were used in this study. Mice were anesthetized and a central corneal incision was made. The lens fiber mass was removed by hydrodissection and the remaining lens was carefully washed by HBSS to remove any lens fiber debris. Saline buffer was injected to help mice to restore their proper eye shape. Eye drops containing the antibiotic Ofloxacin were applied once immediately after surgery, and mice were sacrificed at 2, 3, 4 and 5 days after surgery. For each mouse, bilateral surgeries were performed and 25 μl of 10 mM NAC or 2 mM of GSH-EE was injected into right eye chamber immediately after surgery and continual eye drop topical application was given every 6 hr from 7 am to 11 pm. The untreated left eye served as a control. Eyes collected immediately after surgery served as time zero control. At least 6 mice were used in each group. At each time point, eyes were carefully dissected and placed in 4% paraformaldehyde for 18 hr, and then subjected to paraffin embedding and sectioning. For paraffin embedded slides, 6 μm thick sections were deparaffinized and rehydrated using standard procedure. The slides were rinsed with PBS for 10 min and antigen retrieval was carried out in 0.1M sodium citrate, pH 6.0 buffer in a microwave oven using a 4 min at power 5 plus 8 min at power 3 program. The slides were then blocked and permeabilized with 5% normal goat serum, 0.3% triton X-100 for 30 min. The primary antibody, rabbit polyclonal collagen I antibody (1:250) (Abcam, Cambridge, Mass.), rabbit polyclonal vimentin (1:500) (ThermoFisher), mouse monoclonal fibronectin antibody (1:5) (Developmental Studies Hybridoma Bank, DSHB, University of Iowa), mouse monoclonal active β-catenin (Tyr489) (1:10) (DSHB) or FITC labeled mouse monoclonal αSMA antibody (1:1000) (Sigma-Aldrich) were applied in 0.1% BSA PBS solution and incubated at 4° C. overnight in a humid chamber. After wash, the Alexa-488 or/and Alexa-594 conjugated secondary antibodies (ThermoFisher) were then applied and incubated at room temperature for one hour in a humid chamber. After wash, the slides were mounted with Prolong antifade with DAPI (ThermoFisher). For lens explant culture, the explant was briefly fixed with 10% formaldehyde for 10 min and then subjected to directly staining procedure without antigen retrieval procedure. Confocal microscope—All confocal images were collected by a Leica SP8 gSTED confocal microscope equipped with two 3 Hyd SP GaAsP detectors and the AOBS system lasers include a 405 nm, Argon (458, 476, 488, 496, 514 nm), a tunable white light (470 to 670 nm), and a 592 nm STED depletion laser. For proper comparison, each channel of fluorescence was adjusted to the highest sensitivity/intensity but without over saturation from samples with the strongest signal. […]

Which “αSMA production after BSO stimulation” value (HLE-B3 cells) does the source give for `CCOC(=O)CNC(=O)[C@H](CS)NC(=O)CC[C@H](N)C(=O)O` [GSH-EE, glutathione ethyl ester] here?
Its value is “alleviated; also recorded: partially, but significantly, block”.

What about the “TGFβ2-mediated αSMA production” value (HLE-B3 cells) of the same compound?
Its value is “alleviated; also recorded: significantly alleviate”.

What about the “BSO-increased Ser9 phosphorylation of GSK-3β” value (HLE-B3 cells) of the same compound?
Its value is “alleviated”.

And the “BSO-increased β-catenin expression” value (HLE-B3 cells)?
The value was “attenuate; also recorded: alleviated”.

And the “production of EMT marker proteins (fibronectin, vimentin, collagen I, αSMA)” value (mice; Gclm KO mice, 2 mM GSH-EE)?
Its value is “partially but significantly attenuate”.

Which “αSMA production after BSO stimulation” value (HLE-B3 cells) does the source give for `CC(=O)N[C@@H](CS)C(=O)O` [NAC, N-acetyl cysteine] here?
The value was “alleviated; also recorded: completely abolish”.

And the “TGFβ2-mediated αSMA production” value (HLE-B3 cells)?
Its value is “alleviated; also recorded: completely block”.

What about the “inhibitory effect on EMT process compared with GSH-EE” value (HLE-B3 cells; cell culture) of the same compound?
Its value is “much higher inhibitory effect than GSH-EE”.

And the “BSO-increased Ser9 phosphorylation of GSK-3β” value (HLE-B3 cells)?
The value was “attenuate; also recorded: alleviated; also recorded: completely abolished”.

What about the “BSO-increased β-catenin expression” value (HLE-B3 cells) of the same compound?
The value was “alleviated”.

What about the “nuclear colocalization (translocation) of active β-catenin” value (mice; Gclc−/− (LEGSKO) mice, 72 hr after surgery, 10 mM NAC injected into eye chamber plus eye drops every 6 hours) of the same compound?
The value was “significantly attenuated”.

And the “fibronectin/vimentin and collagen I/αSMA expression compared to control eyes” value (mice; WT and LEGSKO mice, 10 mM NAC injection immediately after surgery and continuous topical application)?
The value was “remarkable attenuation”.

What about the “inhibitory effect on EMT process compared with GSH-EE” value (mice; in vivo cataract surgery models) of the same compound?
The value was “much higher inhibitory effect than GSH-EE”.

From patent publication US20200038355A1, “ANTIOXIDANTS FOR USE IN OPHTHALMIC SURGERY” (Case Western Reserve University, priority 2017, published 2020)
